Laboratory results reported in ChEMBL document CHEMBL3399999, “Anti-trypanosomal cadinanes synthesized by transannular cyclization of the natural sesquiterpene lactone nobilin” (Bioorg Med Chem, 2015).

How the values were obtained:
[1] = Selectivity index, ratio of IC50 for rat L6 cells to IC50 for bloodstream forms of Trypanosoma brucei rhodesiense STIB 900; format: toxicity, cell-based; settings: read-out: Ratio IC50
[2] = test system: L6; assay: Cytotoxicity against rat L6 cells; format: cell-based
[3] = test system: Trypanosoma brucei rhodesiense; assay: Antiprotozoal activity against bloodstream forms of Trypanosoma brucei rhodesiense STIB 900 after 70 hrs by Alamar blue assay; format: functional, organism-based; settings: STIB 900, 70 h

Structure (SMILES): C=C(C(=O)O)[C@H]1[C@@H]2C=C(C)[C@@H](O)C[C@H]2[C@](C)(O)C[C@@H]1OC(=O)/C(C)=C\C
- selectivity ratio [1]: > 2
- IC50 [2]: > 100 µM
- IC50 [3]: 50.5 µM

Structure (SMILES): C=C(C(=O)O)[C@H]1[C@@H]2C=C(C)[C@@H](O)C[C@@H]2[C@](C)(O)C[C@@H]1OC(=O)/C(C)=C\C
- selectivity ratio [1]: 3.3
- IC50 [2]: 49 µM
- IC50 [3]: 14.8 µM

Structure (SMILES): C=C1C(=O)O[C@]23C=C(C)[C@@H](O)C[C@@H]2[C@H](C)C[C@H](OC(=O)/C(C)=C\C)[C@@H]13
- selectivity ratio [1]: 1.5
- IC50 [2]: 2.12 µM
- IC50 [3]: 1.44 µM

Structure (SMILES): C=C1C(=O)O[C@@]23C=C(C)[C@@H](O)C[C@@H]2[C@@H](C)C[C@H](OC(=O)/C(C)=C\C)[C@@H]13
- selectivity ratio [1]: 2.4
- IC50 [2]: 1.11 µM
- IC50 [3]: 0.46 µM

Structure (SMILES): C=C(C(=O)O)[C@H]1[C@@H]2C=C(C)C(=O)C[C@@H]2[C@@H](C)C[C@@H]1OC(=O)/C(C)=C\C
- selectivity ratio [1]: 1.6
- IC50 [2]: 49.1 µM
- IC50 [3]: 31.1 µM

Structure (SMILES): C=C(C)C(=O)O[C@H]1C/C(C)=C/C[C@H](O)/C(C)=C\C2OC(=O)C(=C)[C@@H]21 (single isomer, unassigned)
- selectivity ratio [1]: 6.1
- IC50 [2]: 9.38 µM
- IC50 [3]: 1.54 µM

Structure (SMILES): C=C1C(=O)OC2/C=C(/C)[C@@H](O)C/C=C(\C)C[C@H](OC(=O)/C(C)=C/C)[C@@H]12 (single isomer, unassigned)
- selectivity ratio [1]: 2.9
- IC50 [2]: 10.2 µM
- IC50 [3]: 3.48 µM

Structure (SMILES): Nc1nc(N)nc(Nc2ccc([As]3SCC(CO)S3)cc2)n1 (stereo unspecified) [MELARSOPROL]
- selectivity ratio [1]: > 5000
- IC50 [2]: 29.1 µM

Structure (SMILES): C=C1C(=O)O[C@@H]2/C=C(/C)[C@@H](O)C/C=C(\C)C[C@H](OC(=O)/C(C)=C\C)[C@@H]12 [NOBILIN]
- selectivity ratio [1]: 2.1
- IC50 [2]: 6.64 µM
- IC50 [3]: 3.19 µM
